Measurements: article PMC12362585, “Development and Preclinical Characterization of [^18F]H3-2406 and [^18F]H3-2407 for Positron Emission Tomography Imaging of the Histamine Subtype‑3 Receptor” (Journal of Medicinal Chemistry, 2025)

Experiments:
[1] = In vitro stability in liver microsomes, humans; type: in vitro ADME; details: 90 min
Description: (§1) To assess the stability of [^18F]3, in vitro radioactivity analyses were conducted following 30-, 60- and 90 min coincubation of the radioligand in the serum and liver microsomes from mice, nonhuman primates (NHPs), and humans (Figure ).
(§2) Serum from mice, NHPs, and humans were warmed to room temperature, 15 MBq of [^18F]3 was added to 0.4 mL of each species’ serum. The mixtures were incubated at 37 °C and 0.1 mL of mixture was transferred into 0.2 mL cold acetonitrile at 30, 60, and 90 min. The samples were vortexed for 15 s and then centrifuged at 10,000g for 5 min. The supernatant was analyzed using analytical HPLC (Agilent 1100 series HPLC system on Phenomenex Luna C-18 column (4.6 × 150 mm), mobile phase 30% CH3CN/0.1% TFA in water, flow:1 mL/min). For microsomes studies, a mixture of microsomes (0.5 mg/mL), [^18F]3 (15 MBq), 0.35 mL of PBS, 0.05 mL of NADPH regenerating system A, and 0.01 mL of NADPH regenerating system B were incubated at 37 °C. The subsequent steps followed the same procedure as described above.

[2] = In vitro stability in serum, NHPs; type: in vitro ADME, nonhuman primates (NHPs); details: NHP serum, 37 °C, 30, 60 and 90 min
Description: as §1, §2

[3] = Log D by shake-flask method; type: physicochemical; details: n-octanol/PBS
Description: To evaluate the binding affinities of compounds 1–9, competitive radioligand binding assays were conducted using [^3H]-AZ13582963 [4-(1S,2S)-2-(4-cyclobutylpiperazine-1-carbonyl)-cyclopropyl)-N-methyl-[2-^3 H]-benzamide]. […]. […]. Further, ACD Percepta predictions indicated these compounds are likely to cross the blood-brain barrier (BBB), as indicated by a log BB > −1 and a multiparameter optimization (MPO) score >4.0. High selectivity toward H3R over other CNS targets is essential for effective H3R PET imaging. Therefore, off-target screenings of compounds 2, 3, and 4 were conducted against various CNS receptors, G protein-coupled receptors (GPCRs), transporters, and ion channels at 10 μM (Figure S1). […]. Sigma-1 receptors, crucial for ion channel function and associated with learning, memory, and pain, , have shown synergy with H3R antagonists, including PF-03654746 and ABT-239, potentially enhancing in vivo efficacy.
The lipophilicity was measured according to previously reported methods. , In brief, PBS and n-octanol were premixed prior to the experiment. A solution containing 0.2 MBq of [^18F]3 or [^18F]4, PBS (3 mL) and n-octanol (3 mL) were prepared in a vial and vortexed for 5 min. The PBS and n-octanol layers were then separated and transferred into a centrifuge tube, followed centrifugation at 12,000 rpm for 5 min. Then PBS (0.5 mL) and n-octanol (0.05 mL) were weight and measured the radioactivity on a γ counter (PerkinElmer Wizard). The Log D values of [ ^18F]3 and [^18F]4 were calculated using the following formula: LogD=Log[(radioactivityn‐octanol/weightn‐octanol)/(radioactivityPBS/weightPBS)]

[4] = Ex vivo whole-body biodistribution; type: in vivo; details: 5 min postadministration, CD1 mice
Description: To further investigate the whole-body distribution of [^18F]3, ex vivo biodistribution experiments were conducted in CD1 mice at 5-, 15-, 30-, and 60 min postadministration. […] Initially, high levels of radioactivity were detected in the heart, lung, and kidney, with subsequent clearance observed in these organs over time. […] Minimal radioactivity was detected in the blood and bone at all time points throughout the study. […] These findings indicate that our tracer is relatively stable against in vivo defluorination.
A dose of 1.0 MBq of [^18F]3 in 0.1 mL saline was intravenously injected into the tail vein of CD1 mice (5–6 weeks). At various time-points (5-, 15-, 30- and 60 min) postinjection, the mice were sacrificed, and their organs were collected and weighed. The radioactivity of each organ was measured using a γ counter (PerkinElmer Wizard).

parent fraction in liver microsomes [1]: 95%
parent compound remaining intact in serum [2]: over 95%
logD [3]: 2.82
brain uptake [4]: 10.9 %ID/g
SMILES: O=C([C@H]1C[C@@H]1c1ccc([18F])cc1)N1CCN(C2CCCC2)CC1 [[^18F]3]
